Test results: patent publication US20260001928A1 (CORTERIA PHARMACEUTICALS, priority 2022, published 2026)
*1 amine or outer side, *2 acyl side, *3 side chain or, on linkers, in order; H or OH if unused. Where a SMILES comes first, the peptide text is derived from it. Side-chain parts run from the residue outwards. [ ]: non-standard residue; d: D form. The star is where a group is joined. C18 diacid = O=C(O)CCCCCCCCCCCCCCCCC(=O)*; C16 diacid = O=C(O)CCCCCCCCCCCCCCC(=O)*; γGlu = O=C(O)[C@H](CCC(=O)[*:2])N[*:1]; C14 diacid = O=C(O)CCCCCCCCCCCCC(=O)*; NMeI = CC[C@H](C)[C@H](NC)C(=O)O; NMeV = CN[C@H](C(=O)O)C(C)C; Api = NC1(C(=O)O)CCNCC1; Dap = NC[C@H](N)C(=O)O; AEEA = NCCOCCOCC(=O)O; Aib = CC(C)(N)C(=O)O

Experiments:
human CRF2a receptor = target: T1, human CRF2a receptor (Homo sapiens, UniProt Q13324); experiment: Activity at human CRF2a receptor, cAMP functional assay in TeloHEAC cells; format: cell-based; settings: TeloHEAC cells stably expressing human CRF2a receptor, relative to urocortin 2 (100 nM = 100%)
T1 construct: expressed in transfected cells; host or cells: TeloHEAC cells
T1 sequence (Q13324 1-411): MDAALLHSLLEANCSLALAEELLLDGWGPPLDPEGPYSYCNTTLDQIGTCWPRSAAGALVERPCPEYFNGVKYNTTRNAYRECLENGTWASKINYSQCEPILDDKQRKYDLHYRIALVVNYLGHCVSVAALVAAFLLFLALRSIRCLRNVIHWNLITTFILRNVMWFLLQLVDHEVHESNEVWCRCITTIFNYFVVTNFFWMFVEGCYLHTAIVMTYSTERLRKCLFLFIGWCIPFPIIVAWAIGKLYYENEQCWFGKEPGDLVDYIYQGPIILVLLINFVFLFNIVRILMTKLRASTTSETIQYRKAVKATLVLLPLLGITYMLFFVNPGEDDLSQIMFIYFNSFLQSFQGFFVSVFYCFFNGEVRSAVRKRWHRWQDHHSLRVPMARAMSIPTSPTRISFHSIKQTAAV
In short: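 cAMP accumulation was measured by HTRF 665/620 nm ratio after 30 min at 37° C compound exposure (16 twofold dilutions) of CRF2a-expressing TeloHEAC cells, 10000/well, in HEPES-buffered HBSS plus IBMX. Activity was normalised to urocortin 2 at 100 nM (100%), and EC50 was the concentration giving half-maximal activation.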

CFR1R receptor = target: T2, CFR1R receptor (Homo sapiens, UniProt P34998); experiment: Activity at anti-target CFR1R receptor, cAMP assay in CRF1R-overexpression CHO-K1 cells; format: cell-based; settings: 100% = Sauvagine at 100 nM; for EC50: cAMP
T2 construct: host or cells: CHO-K1 (clone 2)
T2 sequence (P34998 24-415): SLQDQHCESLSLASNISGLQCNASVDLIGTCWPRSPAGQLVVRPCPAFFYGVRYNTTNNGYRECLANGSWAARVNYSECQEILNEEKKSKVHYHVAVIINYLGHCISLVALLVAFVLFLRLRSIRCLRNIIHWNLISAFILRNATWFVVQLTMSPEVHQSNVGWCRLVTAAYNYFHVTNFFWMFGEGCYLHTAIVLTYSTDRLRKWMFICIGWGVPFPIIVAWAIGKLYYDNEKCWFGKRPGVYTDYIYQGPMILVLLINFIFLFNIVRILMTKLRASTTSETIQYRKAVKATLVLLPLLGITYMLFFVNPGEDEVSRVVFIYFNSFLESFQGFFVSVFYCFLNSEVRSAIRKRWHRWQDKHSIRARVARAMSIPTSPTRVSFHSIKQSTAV
In short: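 Clone 2; cryopreserved stocks (10% DMSO); 4000 cells/well final; 100% activation = Sauvagine 100 nM; otherwise as TeloHAEC protocol.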

Compound	EC50 (human CRF2a receptor) [nM]	Emax (% I) (CFR1R receptor)	EC50 (CFR1R receptor) [nM]
CC[C@H](C)[C@H](NC(C)=O)C(=O)N[C@H](C(=O)N[C@@H](CC(C)C)C(=O)N[C@@H](CO)C(=O)N[C@@H](CC(C)C)C(=O)N[C@@H](CC(=O)O)C(=O)N[C@H](C(=O)N1CCC[C@H]1C(=O)N[C@H](C(=O)N[C@@H](CCCCN)C(=O)N[C@@H](CC(C)C)C(=O)N[C@@H](CCCCNC(=O)CC[C@H](NC(=O)CCCCCCCCCCCCCCC(=O)O)C(=O)O)C(=O)N[C@@H](CCCCN)C(=O)N[C@H](C(=O)N[C@@H](CC(C)C)C(=O)N[C@@H](CC(C)C)C(=O)N[C@@H](CCC(=O)O)C(=O)N[C@@H](CCC(N)=O)C(=O)N[C@@H](CCC(=O)O)C(=O)N[C@@H](CCCCN)C(=O)N[C@@H](CCC(N)=O)C(=O)N[C@@H](CCCCN)C(=O)N[C@@H](CCCCN)C(=O)N[C@@H](CCC(N)=O)C(=O)N[C@@H](CCCNC(=N)N)C(=O)N[C@@H](CCC(=O)O)C(=O)N[C@@H](CCC(N)=O)C(=O)N[C@@H](C)C(=O)N[C@@H](CCC(=O)O)C(=O)N[C@H](C(=O)N[C@@H](CC(N)=O)C(=O)NC(C)(C)C(=O)N[C@@H](CCC(N)=O)C(=O)N[C@H](C(=O)N[C@@H](CC(C)C)C(=O)N[C@@H](C)C(=O)N[C@@H](CCC(N)=O)C(=O)N[C@H](C(N)=O)C(C)C)[C@@H](C)CC)[C@@H](C)O)[C@@H](C)CC)[C@@H](C)CC)C(C)C)C(C)C [compound 39] (Ac-IVLSLDVPIKLK([γGlu-C16 diacid])KILLEQEKQKKQREQAETN[Aib]QILAQV-NH2)	0.53	2	> 250
CC[C@H](C)[C@H](NC)C(=O)N[C@H](C(=O)N[C@@H](CC(C)C)C(=O)N[C@@H](CO)C(=O)N[C@@H](CC(C)C)C(=O)N[C@@H](CC(=O)O)C(=O)N[C@@H](C(=O)N1CCC[C@H]1C(=O)N[C@H](C(=O)N[C@@H](CCCCN)C(=O)N[C@@H](CC(C)C)C(=O)N[C@@H](CCCCNC(=O)CC[C@H](NC(=O)CCCCCCCCCCCCCCCCC(=O)O)C(=O)O)C(=O)N[C@@H](CCCCN)C(=O)N[C@H](C(=O)N[C@@H](CC(C)C)C(=O)N[C@@H](CC(C)C)C(=O)N[C@@H](CCC(=O)O)C(=O)N[C@@H](CCC(N)=O)C(=O)N[C@@H](CCC(=O)O)C(=O)N[C@@H](CCCCN)C(=O)N[C@@H](CCC(N)=O)C(=O)N[C@@H](CCCCN)C(=O)N[C@@H](CCCCN)C(=O)N[C@@H](CCC(N)=O)C(=O)N[C@@H](CCCNC(=N)N)C(=O)N[C@@H](CCC(=O)O)C(=O)N[C@@H](CCC(N)=O)C(=O)N[C@@H](C)C(=O)N[C@@H](CCC(=O)O)C(=O)N[C@H](C(=O)N[C@@H](CC(N)=O)C(=O)NC(C)(C)C(=O)N[C@@H](CCC(N)=O)C(=O)N[C@H](C(=O)N[C@@H](CC(C)C)C(=O)N[C@@H](C)C(=O)N[C@@H](CCC(N)=O)C(=O)N[C@H](C(N)=O)C(C)C)[C@@H](C)CC)[C@@H](C)O)[C@@H](C)CC)[C@@H](C)CC)C(C)C)C(C)C [compound 137] (H-[NMeI]VLSLD[dV]PIKLK([γGlu-C18 diacid])KILLEQEKQKKQREQAETN[Aib]QILAQV-NH2)	0.07	9	> 250

Next, values leading:

EC50 (human CRF2a receptor) [nM]	Emax (% I) (CFR1R receptor)	EC50 (CFR1R receptor) [nM]	Compound
0.17	14	> 250	CC[C@H](C)[C@H](NC)C(=O)N[C@H](C(=O)N[C@@H](CC(C)C)C(=O)N[C@@H](CO)C(=O)N[C@@H](CC(C)C)C(=O)N[C@@H](CC(=O)O)C(=O)N[C@@H](C(=O)N1CCC[C@H]1C(=O)N[C@H](C(=O)N[C@@H](CCCCN)C(=O)N[C@@H](CC(C)C)C(=O)N[C@@H](CCCCNC(=O)CC[C@H](NC(=O)CCCCCCCCCCCCCCCCC(=O)O)C(=O)O)C(=O)N[C@@H](CCCCN)C(=O)N[C@H](C(=O)N[C@@H](CC(C)C)C(=O)N[C@@H](CC(C)C)C(=O)N[C@@H](CCC(=O)O)C(=O)N[C@@H](CCC(N)=O)C(=O)N[C@@H](CCC(=O)O)C(=O)N[C@@H](CCCCN)C(=O)N[C@@H](CCC(N)=O)C(=O)N[C@@H](CCCCN)C(=O)N[C@@H](CCCCN)C(=O)N[C@@H](CCC(N)=O)C(=O)N[C@@H](CCCNC(=N)N)C(=O)N[C@@H](CCC(=O)O)C(=O)N[C@@H](CCC(N)=O)C(=O)N[C@@H](C)C(=O)N[C@@H](CCC(=O)O)C(=O)N[C@H](C(=O)N[C@@H](CC(N)=O)C(=O)N[C@@H](CN)C(=O)N[C@@H](CCC(N)=O)C(=O)N[C@H](C(=O)N[C@@H](CC(C)C)C(=O)N[C@@H](C)C(=O)N[C@@H](CCC(N)=O)C(=O)N[C@H](C(N)=O)C(C)C)[C@@H](C)CC)[C@@H](C)O)[C@@H](C)CC)[C@@H](C)CC)C(C)C)C(C)C [compound 140] (H-[NMeI]VLSLD[dV]PIKLK([γGlu-C18 diacid])KILLEQEKQKKQREQAETN[Dap]QILAQV-NH2)
2.08	2	> 250	CC[C@H](C)[C@H](NC(=O)[C@H](CCC(N)=O)NC(=O)C1(NC(=O)[C@H](CC(N)=O)NC(=O)[C@@H](NC(=O)[C@H](CCC(=O)O)NC(=O)[C@H](C)NC(=O)[C@H](CCC(N)=O)NC(=O)[C@H](CCC(=O)O)NC(=O)[C@H](CCCNC(=N)N)NC(=O)[C@H](CCC(N)=O)NC(=O)[C@H](CCCCN)NC(=O)[C@H](CCCCN)NC(=O)[C@H](CCC(N)=O)NC(=O)[C@H](CCCCN)NC(=O)[C@H](CCC(=O)O)NC(=O)[C@H](CCC(N)=O)NC(=O)[C@H](CCC(=O)O)NC(=O)[C@H](CC(C)C)NC(=O)[C@H](CC(C)C)NC(=O)[C@@H](NC(=O)[C@H](CCCCN)NC(=O)[C@H](CCCCNC(=O)CC[C@H](NC(=O)CCCCCCCCCCCCCCC(=O)O)C(=O)O)NC(=O)[C@H](CC(C)C)NC(=O)[C@H](CCCCN)NC(=O)[C@@H](NC(=O)[C@@H]2CCCN2C(=O)[C@H](NC(=O)[C@H](CC(=O)O)NC(=O)[C@H](CC(C)C)NC(=O)[C@H](CO)NC(=O)[C@H](CC(C)C)NC(=O)[C@@H](NC)C(C)C)C(C)C)[C@@H](C)CC)[C@@H](C)CC)[C@@H](C)O)CCNCC1)C(=O)N[C@@H](CC(C)C)C(=O)N[C@@H](C)C(=O)N[C@@H](CCC(N)=O)C(=O)N[C@H](C(N)=O)C(C)C [compound 160] (H-[NMeV]LSLD[dV]PIKLK([γGlu-C16 diacid])KILLEQEKQKKQREQAETN[Api]QILAQV-NH2)
28.1	−1	> 250	CC[C@H](C)[C@H](NC(C)=O)C(=O)N[C@H](C(=O)N[C@@H](CC(C)C)C(=O)N[C@@H](CO)C(=O)N[C@@H](CC(C)C)C(=O)N[C@@H](CC(=O)O)C(=O)N[C@@H](C(=O)N1CCC[C@H]1C(=O)N[C@H](C(=O)N[C@@H](CCCCN)C(=O)N[C@@H](CC(C)C)C(=O)N[C@@H](CCCCNC(=O)COCCOCCNC(=O)COCCOCCNC(=O)CC[C@H](NC(=O)CCCCCCCCCCCCC(=O)O)C(=O)O)C(=O)N[C@@H](CCCCN)C(=O)N[C@H](C(=O)N[C@@H](CC(C)C)C(=O)N[C@@H](CC(C)C)C(=O)N[C@@H](CCC(=O)O)C(=O)N[C@@H](CCC(N)=O)C(=O)N[C@@H](CCC(=O)O)C(=O)N[C@@H](CCCCN)C(=O)N[C@@H](CCC(N)=O)C(=O)N[C@@H](CCCCN)C(=O)NC(C)(C)C(=O)N[C@@H](CCC(N)=O)C(=O)N[C@@H](CCCNC(=N)N)C(=O)N[C@@H](CCC(=O)O)C(=O)N[C@@H](CCC(N)=O)C(=O)N[C@@H](C)C(=O)N[C@@H](CCC(=O)O)C(=O)N[C@H](C(=O)N[C@@H](CC(N)=O)C(=O)NC1(C(=O)N[C@@H](CCC(N)=O)C(=O)N[C@H](C(=O)N[C@@H](CC(C)C)C(=O)N[C@@H](C)C(=O)N[C@@H](CCC(N)=O)C(=O)N[C@H](C(N)=O)C(C)C)[C@@H](C)CC)CCNCC1)[C@@H](C)O)[C@@H](C)CC)[C@@H](C)CC)C(C)C)C(C)C [compound 173] (Ac-IVLSLD[dV]PIKLK([AEEA-AEEA-γGlu-C14 diacid])KILLEQEKQK[Aib]QREQAETN[Api]QILAQV-NH2)
